Assay results taken from patent US9006191B2, “Silencing of polo-like kinase expression using interfering RNA” (Protiva Biotherapeutics, Inc., priority 2007, dated 2015).
Entries after “also recorded” stand apart in the source; their conditions may differ.

Experiments:
[1] = system: PLK-1 mRNA; experiment: PLK-1 mRNA silencing in cell cultures (QuantiGene branched DNA assay); assay type: cell-based, human; conditions: 0.12-30 nM SNALP, 24 h
Protocol: Target mRNA Quantitation: The QuantiGene® branched DNA assay (Panomics, Inc.; Fremont, Calif.) was used to quantify the reduction of target mRNA in cell cultures treated with SNALP. Cell lysates were prepared according to the manufacturer's instructions and used directly for PLK1 mRNA quantification. Relative PLK-1 mRNA levels are expressed relative to the vehicle (PBS) treated control cells. Specific probe sets used for detection of mRNA were designed to target human PLK-1 mRNA (Genbank Accession No. NM_005030). These probe sets are cross reactive with mouse PLK-1.
PLK-1 SNALP (“2:40” SNALP formulation: 2% PEG-cDMA; 40% DLinDMA; 10% DSPC; and 48% cholesterol) were tested for their ability to silence PLK-1 mRNA in HT29 cells. Cells were plated in duplicates at relatively high concentrations (˜10,000 cells/well). QuantiGene® analysis was performed at 24 hours following transfection to detect the level of mRNA down-regulation. A visual score of the transfected cells was obtained at 48 hours following transfection. Cell viability analysis was performed at 72 hours following transfection.
SNALP containing PLK1424 or PLK773 siRNA (“2:40” SNALP formulation: 2% PEG-cDMA; 40% DLinDMA; 10% DSPC; and 48% cholesterol) were tested for their effects on cell viability and silencing of PLK-1 mRNA in HT29 and LS174T human colon cancer cells. Cells were plated in triplicate at ˜10,000 cells/well. SNALP dosages were as follows: 30 nM; 10 nM; 3.3 nM; 1.1 nM; 0.37 nM; and 0.12 nM. Branched DNA mRNA assays were performed 24 hours following transfection. Cell viability assays were performed at 72 hours following transfection. SNALP containing a non-targeting (GFP) siRNA were used as a negative control. […] The effects on cell viability correlated with silencing of the target PLK-1 mRNA.

[2] = system: Flt3-ligand derived murine dendritic cells; experiment: Cytokine induction in murine Flt3L dendritic cell cultures (ELISA); assay type: cell-based, mouse; conditions: murine Flt3L DC, 5 μg/ml siRNA in SNALP, 24 h
Protocol: Cytokine Induction Assays: Flt3-ligand derived murine dendritic cells (Flt3L DC) were generated as described by Gilliet et al. (J. Exp. Med., 195:953-958) using 100 ng/ml murine Flt3-ligand (PeproTech Inc.; Rocky Hill, N.J.) supplemented media. Femurs and tibiae of female Balb/C mice were isolated and rinsed in sterile PBS. The ends of bones were cut and marrow harvested in complete media (RPMI 1640, 10% heat inactivated FBS, 1% penicillin/streptomycin, 2 mM L-glutamine, 1 mM sodium pyruvate, 25 mM HEPES, 50 μM 2-mercaptoethanol). Bone marrow cells were passed through a 70 μm strainer, centrifuged at 1000 rpm for 7 minutes, and resuspended in complete media supplemented with 100 ng/ml murine Flt3L to 2×10^6 cells/ml. 2 mls of cells were seeded in 6-well plates and 1 ml fresh complete media added every two or three days. On day 9 of culture, non-adherent cells were washed in complete media and plated into 96-well plates at concentrations ranging from 0.5 to 2.5×10^5 cells/well. 2′OMe-modified and unmodified (0/0) PLK-1 SNALP were diluted in PBS and added to Flt3L DC cultures at 5 μg/ml siRNA. Cells were incubated for 24 hours at 37° C. before supernatants were assayed for cytokines by ELISA.
Cytokine ELISA: Interferon-α and IL-6 in culture supernatants were quantified using sandwich ELISA kits according to manufacturer's instructions. These were mouse IFN-α (PBL Biomedical; Piscataway, N.J.) and mouse IL-6 (eBioscience; San Diego, Calif.).
In vitro immune stimulation assays. Mouse Flt3L dendritic cell cultures were generated as described previously (65). In brief, bone marrow from Balb/C mice was harvested in complete media (RPMI 1640, 10% FBS, 1% penicillin/streptomycin, 2 mM L-glutamine, 1 mM sodium pyruvate, 25 mM HEPES, 50 uM 2-mercaptoethanol), passed through a 70 micron strainer and resuspended to 2×10^6 cells/mL in complete media supplemented with 100 ng/mL murine Flt3L (Peprotech). Cells were seeded in 6-well plates and 1 mL fresh Flt3L media added every three days. On day 9 of culture, non-adherent cells were plated into 96 well plates at a concentration 2×10^5 cells/well. Formulated siRNA were diluted in PBS and added to the cells for 24 h before supernatants were assayed for cytokines by ELISA.
Cytokine ELISA. All cytokines were quantified using sandwich ELISA kits.

[3] = system: LS174T cells; experiment: Apoptosis/Caspase 3/7 assay in LS174T cells; assay type: cell-based, human; conditions: SNALP-formulated siRNA, 24-72 h
Protocol: This assay is based on the specific enzymatic cleavage of the Caspase 3/7 substrate (Z-DEVD)-2-Rhodamine 110 to a fluorogenic product and is used to quantify the level of apoptosis in cultured cells.
SNALP containing PLK1424 or PLK773 siRNA (“2:40” SNALP formulation: 2% PEG-cDMA; 40% DLinDMA; 10% DSPC; and 48% cholesterol) were further tested for their effects on inducing the apoptosis of LS174T cells. Cells were plated in triplicate at ˜10,000 cells/well. SNALP dosages were as follows: 30 nM; 10 nM; and 3.3 nM. Caspase 3/7 assays were performed at 24, 48, and 72 hours following transfection. SNALP containing a non-targeting (GFP) siRNA were used as a negative control.

Substance	PLK-1 mRNA levels ([1]; HT29 cells)	PLK-1 mRNA levels ([1]; LS174T cells)	cytokine (IL-6, IFN-α) response [2]	induction of apoptosis (Caspase 3/7 activity) [3]
PLK773: siRNA to human PLK-1, SEQ ID NO:3/4 (UU overhang form 218/219) (chain 1 AGACCUACCUCCGGAUCAA; chain 2 UUGAUCCGGAGGUAGGUCU; RNA, backbone not given here)	effective at reducing PLK-1 mRNA levels	effective at reducing PLK-1 mRNA levels	high levels of both IFNα and IL-6	induced a significant amount of apoptosis in LS174T cells at all SNALP doses tested
PLK1424-2/A: 2′OMe-modified PLK1424 duplex, SEQ ID NO:214/215 (same SEQ IDs as PLK1424 1/3 of Table 11) (chain 1 AGANCACCCNCCUNAAANAUU; chain 2 UAUUUAANGAGGGUGANCUUU; siRNA; 2'-O-methyl modifications at selected positions, key for n not given here)			completely abrogated	
PLK1424: siRNA to human PLK-1, SEQ ID NO:1/2 (UU overhang form 211/212) (chain 1 AGAUCACCCUCCUUAAAUA; chain 2 UAUUUAAGGAGGGUGAUCU; further chemistry not given here)	effective at reducing PLK-1 mRNA levels	effective at reducing PLK-1 mRNA levels	high levels of both IFNα and IL-6	induced a significant amount of apoptosis in LS174T cells at all SNALP doses tested; also recorded: dose-dependent induction of apoptosis 48 h after siRNA transfection
